The values that follow come from publication PMC12040169 (PLOS Biology, 2025).

Structures are written as SMILES.

The data set can be described thus: in vitro. To be noted: human, hela cells, % viability.
Regarding `COc1ccc(-c2cc(C(=O)Nc3cnc4ccccc4c3)cnc2-c2cccc(C)c2)cn1` [CBK037425], the viability at 28.5 h, 10 µM was 89.8%.
As for `CCCS(=O)(=O)c1ccc2[nH]c(NC(=O)c3cnc(-c4ccccc4)c(-c4ccncc4)c3)nc2c1` [CBK037426], the viability at 28.5 h, 10 µM came out at 100%.
For `Cc1cccc(-c2ncc(C(=O)Nc3nccs3)cc2-c2ccco2)c1` [CBK037427], the viability at 28.5 h, 10 µM is 86.3%.
Take `COc1cccc(NC(=O)c2cnc(-c3ccc(Cl)cc3)c(-c3ccco3)c2)c1OC` [CBK037428]: the viability at 28.5 h, 10 µM amounted to 103%.
The value for `Brc1cn2ccnc2c(NCC2CC2)n1` [CBK037432] was 93.6%; that for `COc1ccc(-c2cc(C(=O)NCCc3ccncc3)cnc2-c2ccc(F)cc2)cc1` [CBK037434] was 91.5%; that for `O=C(NCC(O)c1ccc2ccccc2c1)c1cnc(-c2ccccc2)c(-c2ccncc2)c1` (centres unmarked) [CBK037438] was 91%.
For the molecule `CC(C)[C@@H](CO)Nc1nc(-c2ccc3ccccc3c2)cn2ccnc12` [CBK037445], the viability at 28.5 h, 10 µM was found to be 85.8%.
Turning to `OCc1cccc(-c2nccnc2NCc2ccncc2)c1` [CBK037446], the viability at 28.5 h, 10 µM stood at 105%.
`Brc1cn2ccnc2c(Nc2ccc3[nH]ccc3c2)n1` [CBK037449]: the viability at 28.5 h, 10 µM was 102%.
As to `COc1cccc(CNc2nccnc2-c2ccc(S(C)(=O)=O)cc2)c1OC` [CBK037452], the viability at 28.5 h, 10 µM was 104%.
The value for `Cc1cccc(CNc2nccnc2-c2ccncc2)c1` [CBK037453] was 99.3%; that for `Cc1cccc(-c2ncc(C(=O)NCCCN3CCCC3=O)cc2-c2ccco2)c1` [CBK037455] was 96.5%.
`O=C(Nc1ccc(OC(F)(F)F)cc1)c1cnc(-c2ccc(Cl)cc2)c(-c2ccco2)c1` [CBK037456]: the viability at 28.5 h, 10 µM was found to be 106%.
Take `O=C(Nc1ccc(CCO)cc1)c1cnc(-c2ccc(Cl)cc2)c(-c2ccco2)c1` [CBK037457]: the viability at 28.5 h, 10 µM was 97.5%.
For the molecule `CCC(CO)NC(=O)c1cnc(-c2cccc(C)c2)c(-c2ccc(OC)cc2)c1` (centres unmarked) [CBK037460], the viability at 28.5 h, 10 µM was found to be 101%.
For the molecule `CCC(CO)Nc1nc(-c2ccc(O)cc2)cn2ccnc12` (centres unmarked) [CBK037471], the viability at 28.5 h, 10 µM was found to be 106%.
Turning to `Clc1ccccc1-c1nccnc1NCc1ccncc1` [CBK037472], the viability at 28.5 h, 10 µM turned out to be 89.2%.
As to `CCN(CCO)c1ccc(Nc2nc(Br)cn3ccnc23)cc1` [CBK037475], the viability at 28.5 h, 10 µM was 98.9%.
With `O=C(Nc1ccc(OC(F)(F)F)cc1)c1cnc(-c2ccc(Cl)cc2)c(-c2ccc(O)cc2)c1` [CBK037485], the viability at 28.5 h, 10 µM worked out at 109%.
As to `COc1ccc(-c2cc(C(=O)Nc3ccc(F)c(Cl)c3)cnc2-c2cccc(C)c2)cc1` [CBK037488], the viability at 28.5 h, 10 µM stood at 93.3%.
For the molecule `COc1ccc(-c2cc(C(=O)NCCc3ccncc3)cnc2-c2cccc(C)c2)cn1` [CBK037489], the viability at 28.5 h, 10 µM was 99.1%.
As to `O=C(Nc1ccc(NC(=O)c2ccccc2O)cc1)c1cnc(-c2ccccc2)c(-c2ccncc2)c1` [CBK037490], the viability at 28.5 h, 10 µM was determined as 80.5%.
`CN(C)CCN1CCN(c2nc(Br)cn3ccnc23)CC1` [CBK037501]: the viability at 28.5 h, 10 µM is 91.3%.
The value for `CN(Cc1ccccc1)c1nccnc1-c1ccccc1Cl` [CBK037502] was 103%; that for `CC(=O)c1ccc(-c2nccnc2N(C)Cc2ccccc2)s1` [CBK037504] was 112%; that for `CS(=O)(=O)CCNC(=O)c1cnc(-c2ccc(F)cc2)c(-c2ccco2)c1` [CBK037505] was 93.1%.
Consider `COc1ncc(-c2nccnc2NCc2cccc(OC)c2OC)c(OC)n1` [CBK037506], for which the viability at 28.5 h, 10 µM came to 76.9%.
Turning to `CC(=O)c1ccc(-c2nccnc2NCc2cccc([N+](=O)[O-])c2)s1` [CBK037509], the viability at 28.5 h, 10 µM was found to be 106%.
As to `c1cc(CNc2nccnc2-c2ccsc2)ccn1` [CBK037513], the viability at 28.5 h, 10 µM is 103%.
For the molecule `COc1ccc(-c2cc(C(=O)Nc3ccccn3)cnc2-c2ccccc2)cn1` [CBK037519], the viability at 28.5 h, 10 µM is 89.3%.
With `CC(C)[C@H](CO)Nc1nc(-c2ccc(CCC(=O)O)cc2)cn2ccnc12` [CBK037522], the viability at 28.5 h, 10 µM is 92.7%.
Consider `COc1ccc(-c2nc(NC(=O)Cc3ccc(S(C)(=O)=O)cc3)cnc2-c2cccc(C)c2)cc1` [CBK037525], for which the viability at 28.5 h, 10 µM was found to be 88.2%.
With `Oc1cccc(-c2cn3ccnc3c(NCc3ccccn3)n2)c1` [CBK037535], the viability at 28.5 h, 10 µM was 102%.
The value for `Nc1cccc(-c2nccnc2NCc2cccs2)c1` [CBK037537] was 104%.
Take `CC(C)[C@@H](CO)Nc1nc(-c2cccnc2)cn2ccnc12` [CBK037539]: the viability at 28.5 h, 10 µM is 94%.
Take `Nc1cccc(-c2nc(NC(=O)Cc3ccccc3)cnc2-c2ccc(F)cc2)c1` [CBK037550]: the viability at 28.5 h, 10 µM turned out to be 91.3%.
On to `COc1ccc(-c2nc(NC(=O)Cc3ccccc3OC(F)(F)F)cnc2-c2cccc(C)c2)cc1` [CBK037551], for which the viability at 28.5 h, 10 µM worked out at 107%.
For `COc1ccc(-c2cc(C(=O)Nc3nccs3)cnc2-c2ccc(Cl)cc2)cc1` [CBK037553], the viability at 28.5 h, 10 µM came to 87.4%.
For `O=C(NCC(c1cccnc1)N1CCOCC1)c1cnc(-c2ccc(Cl)cc2)c(-c2ccco2)c1` (centres unmarked) [CBK037554], the viability at 28.5 h, 10 µM was determined as 100%.
The value for `CCNC(=O)c1cnc(-c2cccc(C(F)(F)F)c2)c(-c2cccc(CO)c2)c1` [CBK037557] was 94.7%.
For `COc1ccc(-c2nc(NC(=O)c3ccc(S(N)(=O)=O)cc3)cnc2-c2cccc(C)c2)cc1` [CBK037559], the viability at 28.5 h, 10 µM was 103%.
Regarding `COc1ccc(-c2cc(C(=O)NCCc3ccc(N)cc3)cnc2-c2ccc(Cl)cc2)cc1` [CBK037561], the viability at 28.5 h, 10 µM stood at 91.6%.
Regarding `COc1ccc(-c2cc(C(=O)NCC(O)c3ccc4ccccc4c3)cnc2-c2ccccc2)cn1` (centres unmarked) [CBK037562], the viability at 28.5 h, 10 µM worked out at 103%.
Turning to `O=C(O)c1cccc(NC(=O)c2cnc(-c3cccc(C(F)(F)F)c3)c(-c3cccc(CO)c3)c2)c1` [CBK037565], the viability at 28.5 h, 10 µM turned out to be 96%.
With `O=C(Nc1cccnc1)c1cnc(-c2ccc(Cl)cc2)c(-c2cccnc2)c1` [CBK037568], the viability at 28.5 h, 10 µM was determined as 102%.
`Cc1cccc(-c2ncc(NC(=O)COc3ccc4ccccc4c3)nc2-c2ccc(N(C)C)cc2)c1` [CBK037575]: the viability at 28.5 h, 10 µM came to 111%.
With `COc1ccc2nc(NC(=O)c3cnc(-c4ccc(Cl)cc4)c(-c4cccnc4)c3)sc2c1` [CBK037576], the viability at 28.5 h, 10 µM was determined as 105%.
Turning to `CN(C)c1ccc(CC(=O)Nc2cnc(-c3ccc(F)c(Cl)c3)c(-c3ccco3)n2)cc1` [CBK037581], the viability at 28.5 h, 10 µM stood at 97.9%.
Regarding `COc1ccc(-c2nc(NC(=O)Cc3ccc(N(C)C)cc3)cnc2-c2ccc(F)cc2)cn1` [CBK037582], the viability at 28.5 h, 10 µM was found to be 97.9%.
Take `CCNC(=O)c1cnc(-c2ccc(Cl)cc2)c(-c2cccnc2)c1` [CBK037584]: the viability at 28.5 h, 10 µM was 103%.
`O=C(NCCS(=O)(=O)c1ccccc1)c1cnc(-c2ccc(Cl)cc2)c(-c2ccncc2)c1` [CBK037587]: the viability at 28.5 h, 10 µM is 100%.
Turning to `N#Cc1ccccc1N1CCN(c2ccc(-c3ccccc3)cn2)CC1` [CBK037590], the viability at 28.5 h, 10 µM worked out at 97.8%.
As for `COc1ccc(NC(=O)c2cnc(-c3cccc(C(F)(F)F)c3)c(-c3ccncc3)c2)cc1` [CBK037593], the viability at 28.5 h, 10 µM came to 87.3%.
For `Nc1ccc(-c2nc(NC(=O)c3cccs3)cnc2-c2ccc(F)cc2)cc1` [CBK037597], the viability at 28.5 h, 10 µM came to 94.2%.
The value for `CN1CCN(c2cccc(-c3ccccc3Oc3ccccc3)n2)CC1` [CBK037598] was 101%.
Turning to `COc1ncc(-c2cccc(N(C)CCN(C)C)n2)c(OC)n1` [CBK037599], the viability at 28.5 h, 10 µM came out at 99.1%.
Consider `CC(C)CNc1ccc(-c2cccc(N(C)C)c2)cn1` [CBK037603], for which the viability at 28.5 h, 10 µM was 76.9%.
Turning to `O=C(NC(CN1CCOCC1)c1ccccc1)c1cnc(-c2ccc(Cl)cc2)c(-c2ccncc2)c1` (centres unmarked) [CBK037604], the viability at 28.5 h, 10 µM was determined as 100%.
In the case of `O=C(NCc1ccc(Cl)cc1)c1cnc(-c2cccc(C(F)(F)F)c2)c(-c2ccncc2)c1` [CBK037607], the viability at 28.5 h, 10 µM stood at 84.8%.
On to `COc1cc(C)c(Nc2cccc(-c3ccc(O)cc3)n2)cc1OC` [CBK037608], for which the viability at 28.5 h, 10 µM came out at 107%.
With `CN(C)CCN1CCN(c2cccc(-c3ccc(-c4ccccc4)cc3)n2)CC1` [CBK037610], the viability at 28.5 h, 10 µM turned out to be 103%.
With `CN1CCN(c2ccc(-c3cccc(N(C)C)c3)cn2)CC1` [CBK037621], the viability at 28.5 h, 10 µM stood at 102%.
The value for `COC(=O)C(NC(=O)c1cnc(-c2cccc(C(F)(F)F)c2)c(-c2ccncc2)c1)c1ccccc1` (centres unmarked) [CBK037624] was 98.9%.
The value for `c1cc(-c2nccnc2NCC2CCCCC2)ccn1` [CBK037627] was 99.4%.
With `Fc1cccc(-c2nccnc2NCc2cccnc2)c1` [CBK037633], the viability at 28.5 h, 10 µM was 88.3%.
For the molecule `c1cncc(CNc2nccnc2-c2ccoc2)c1` [CBK037635], the viability at 28.5 h, 10 µM was 96.4%.
Regarding `c1cncc(Nc2cccc(-c3cnc4ccccc4c3)n2)c1` [CBK037638], the viability at 28.5 h, 10 µM was 98.8%.
The same measure for `CN1CCN(c2cccc(-c3ccc(CNC(=O)OC(C)(C)C)cc3)n2)CC1` [CBK037641]: 95.2%; for `COc1ccc(-c2cccc(Nc3cccnc3)n2)cc1OC` [CBK037644]: 94.6%; for `Oc1cccc(-c2nccnc2NCc2ccc(Cl)cc2)c1` [CBK037650]: 92.8%.
For the molecule `COc1cc(-c2nccnc2N[C@@H]2CCN(Cc3ccccc3)C2)cc(OC)c1OC` [CBK037651], the viability at 28.5 h, 10 µM stood at 96.7%.
Take `CCCCN(C)c1nccnc1-c1cccc(O)c1` [CBK037652]: the viability at 28.5 h, 10 µM came to 99%.
Consider `COc1ccc(Nc2ccc(-c3ccc(C(=O)O)cc3)cn2)cc1` [CBK037654], for which the viability at 28.5 h, 10 µM amounted to 95.2%.
The same measure for `O=c1[nH]ccn1CCNc1ccc(-c2cccc3cccnc23)cn1` [CBK037658]: 79.2%.
Consider `c1cncc(-c2ccc(N3CCN(CCN4CCCC4)CC3)nc2)c1` [CBK037661], for which the viability at 28.5 h, 10 µM was determined as 108%.
Turning to `COc1ncc(-c2nccnc2NCc2ccc(F)cc2)c(OC)n1` [CBK037668], the viability at 28.5 h, 10 µM came out at 96.7%.

Broadly, the viability is a read-out of living cells in per cent, often relative to untreated cells.
